These results are taken from PMC6374954, “Design, synthesis, and biological evaluation of novel derivatives of dithiodiglycolic acid prepared via oxidative coupling of thiols” (Journal of Enzyme Inhibition and Medicinal Chemistry, 2019).

Read-outs that look alike come from different tables or passages of the source.

One data set has as its target TrxR. More on the design: method as in PMID 27977313. The settings on record: read-out: Ki value toward the enzyme; cited from earlier work.
In data set [1] the test system is TrxR1. The settings on record: cited from earlier work.
In data set [2] the target is T1, TrxR1 (Homo sapiens, UniProt Q16881).
T1 construct: For TrxR assay, lysate from SH-SY5Y cells and rat liver were used; endogenous in cells; host or cells: SH-SY5Y human neuroblastoma cells (10,000 x g supernatant of the homogenate)
T1 sequence (Q16881 151-649 limits assumed): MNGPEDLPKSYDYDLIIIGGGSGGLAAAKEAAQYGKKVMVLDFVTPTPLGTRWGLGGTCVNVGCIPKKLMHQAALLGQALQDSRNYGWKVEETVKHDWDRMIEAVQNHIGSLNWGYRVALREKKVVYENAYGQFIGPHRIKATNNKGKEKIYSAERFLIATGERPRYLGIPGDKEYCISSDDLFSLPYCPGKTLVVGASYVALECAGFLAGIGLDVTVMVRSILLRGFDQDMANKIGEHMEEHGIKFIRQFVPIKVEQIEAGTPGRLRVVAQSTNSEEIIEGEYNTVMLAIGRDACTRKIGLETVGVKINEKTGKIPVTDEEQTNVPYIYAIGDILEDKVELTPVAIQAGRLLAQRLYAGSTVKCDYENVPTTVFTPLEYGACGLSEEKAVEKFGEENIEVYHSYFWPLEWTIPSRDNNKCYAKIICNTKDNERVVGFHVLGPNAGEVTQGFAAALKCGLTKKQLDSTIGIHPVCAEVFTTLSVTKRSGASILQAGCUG
The experiment in a line: TrxR inhibition assay (DTNB), SH-SY5Y cell lysate. Conditions: for IC50: neuroblastoma (SHSY5Y) lysate, mean ± SEM (n = 3). Type of data set: biochemical.
Protocol: (§3) For TrxR assay, lysate from SH-SY5Y cells and rat liver were used. SHSY5Y cells were washed twice with phosphate buffer solution (PBS) and harvested from the flask with a scraper. Cells were homogenised in ice-cold 50 mM potassium phosphate buffer (pH 7.4), containing 1 mM EDTA, with Ultra Turrax T25 (Ikawerk, Janke and Kunkel Inc., Staufen, Germany). The homogenates were centrifuged at 10,000 × g for 15 min at 4 °C. The protein concentrations of the supernatants were determined using a Bio-Rad protein assay kit (Bio-Rad Laboratories, USA). TrxR activity was assayed using 5,5-dithio-bis-(2-nitrobenzoic acid) (DTNB, Sigma-Aldrich, USA) as substrate[21]. The reactions were run on a 96-well plates, final volume of 100 µl in 50 mM potassium phosphate buffer (pH 7.0), containing 50 µg of the cell lysate proteins, 1-mM EDTA, 50 mM KCl, 0.2 mg/ml bovine serum albumin, 0.25 mM NADPH (Acros Organics, USA). Reaction mixture was incubated for 15 min at room temperature in plate shaker (PST-60HL-4, BioSan, Riga, Latvia); afterwards DTNB was added to the total concentration of 2.5 mM. Enzyme kinetics was monitored on a Tecan Infinite1000 microplate reader, by measuring the increase in absorbance at 412 nm for 20 min. The background TrxR-independent reduction of DTNB in the cell lysates, as determined in the presence of aurothiomalate (200 µM), was subtracted from each value[22]. Reaction mixture with rat liver lysate contained 35 µg of proteins, 1 mM EDTA, 50 mM KCl, 0.2 mg/ml bovine serum albumin, 0.25 mM NADPH, and 2.5 mM DTNB. Reactions with rat liver lysate were run in the same manner as cell lysates.

In data set [3] the target is T2, TrxR1 (Rattus norvegicus, UniProt O89049).
T2 sequence (O89049 1-499): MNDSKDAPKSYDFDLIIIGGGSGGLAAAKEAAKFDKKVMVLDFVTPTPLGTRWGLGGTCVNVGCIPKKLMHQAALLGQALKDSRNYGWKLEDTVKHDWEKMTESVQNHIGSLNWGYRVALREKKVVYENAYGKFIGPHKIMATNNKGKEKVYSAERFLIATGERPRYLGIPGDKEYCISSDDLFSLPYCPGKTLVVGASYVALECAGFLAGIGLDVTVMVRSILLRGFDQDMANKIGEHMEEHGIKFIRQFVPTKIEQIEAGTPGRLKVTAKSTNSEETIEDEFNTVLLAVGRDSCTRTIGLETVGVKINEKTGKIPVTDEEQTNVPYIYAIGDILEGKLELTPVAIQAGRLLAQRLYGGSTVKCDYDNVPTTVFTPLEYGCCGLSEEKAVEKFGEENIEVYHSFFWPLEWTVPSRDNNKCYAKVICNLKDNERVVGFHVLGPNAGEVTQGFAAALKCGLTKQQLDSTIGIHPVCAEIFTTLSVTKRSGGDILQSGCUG
The experiment in a line: TrxR inhibition assay (DTNB), rat liver (hepatocyte) lysate.
Protocol: as §3

The next data set concerns SHSY5Y cells. The experiment in a line: Cytotoxicity assay (MTT), SH-SY5Y. The class given is cell-based, human. Conditions: 72 h, mean ± SEM (n = 3). The protocol: (§1) Human neuroblastoma cells (SH-SY5Y) were grown in 1:1 mixture of Eagle's Minimum Essential Medium and F12 Medium (Sigma) supplemented with 10% foetal bovine serum (Sigma). Human keratinocytes (HaCaT) were grown in DMEM, supplemented with 10% foetal bovine serum, 2 mM L-glutamine, 5000 U/ml penicillin, and 5 mg/ml streptomycin. Human glioblastoma cell (U87-MG) were grown in Minimum Essential Media (MEM), containing 10% foetal bovine serum, 2 mM L-glutamine, 5,000 U/ml penicillin, and 5 mg/ml streptomycin. All cell lines were obtained from American Type Culture Collection (ATCC, Rockville, MD). All cell lines were grown at 37 °C in a humidified 5% CO2 atmosphere.
(§2) Cells grown in 25 cm^2 tissue flasks were trypsinized, seeded into flat-bottomed adherent 96-well cell culture plates in appropriate medium (SH-SY5Y 12,000 cells/well, U87-MG 4000 cells/well, HaCaT 2000 cells/well) and incubated overnight; afterwards the cells were exposed to different concentrations of the tested compounds for 72 h. Cell viability was measured by MTT assay. Briefly, after incubation with the compounds, medium containing 0.2 mg/ml MTT was added. After incubation (3 h, 37 °C, 5% CO2), the MTT-containing medium was removed, and 200 µl of dimethyl sulfoxide (DMSO) was immediately added to each sample. The samples were assessed at 540 nm on LKB 5060–006 Microplate Reader (Vienna, Austria) microplate reader. The half-maximal inhibitory concentration (IC50) of each compound was calculated using Graph Pad Prism® 6.0 (GraphPad Software, Inc., USA).

In another data set the test system is U87 cells. Kind of data set: Cytotoxicity assay (MTT), U87. The class given is cell-based, human. Conditions: for CC50: U87 cells, 72 h, MTT, mean ± SEM (n = 3). The protocol:
as §1, §2

A further data set concerns HaCaT cells. The experiment in a line: Cytotoxicity assay (MTT), HaCaT. The class given is cell-based, human. The settings on record: 72 h, mean ± SEM (n = 3). On the procedure:
as §1, §2

Data set [4] can be described thus: Cytotoxicity assay (MTT), SH-SY5Y. The class given is cell-based, human. Conditions: human, SH-SY5Y neuroblastoma cells, SHSY5Y cells, mean ± SEM (n = 3). The protocol:
as §1, §2

The nature of data set [5]: Cytotoxicity assay (MTT), U87. Type of data set: cell-based, human. The settings on record: human, U87-MG glioblastoma cells; U87 cells; 72 h; MTT; mean ± SEM (n = 3). On the procedure:
as §1, §2

A short description of data set [6]: Cytotoxicity assay (MTT), HaCaT. The class given is cell-based, human. Conditions: human, HaCaT keratinocytes, HaCaT cells, mean ± SEM (n = 3). The protocol: as §1, §2
The target of data set [7] is T2, TrxR1.
Protocol: as §3
[8] abbreviates: TrxR IC50 Hepatocyte lysate, mean ± SEM (n = 3).
[9] abbreviates: read-out: TrxR IC50 Hepatocyte lysate, mean ± SEM (n = 3).

What is called Ki is the equilibrium dissociation constant of an inhibitor or competing ligand from its target. For `CCC(C)SSc1ncc[nH]1` (stereo not shown) [Compound 2], the Ki on TrxR is 31 µM.

What is called Km is the substrate concentration at which the rate is half of its maximum. Regarding `O=S(=O)(O)CCSSCCS(=O)(=O)O` [Compound 4, disodium 2,2′-dithio-bis-ethane sulphonate], the Km in the data set with TrxR1 [1] (TrxR substrate analogue, read-out: Km value) was 72 µM.

In the case of `CN1C(=O)[C@@]23C[C@]4([C@]56C[C@@]78SS[C@@](CO)(C(=O)N7[C@H]5Nc5ccccc56)N(C)C8=O)c5ccccc5N[C@@H]4N2C(=O)[C@]1(CO)SS3` [Compound 5, chaetocin], the Km with TrxR1 [1] (TrxR1, substrate-competitive inhibition profile, read-out: Km values) was 4.6 µM.

Turning to `CN1C(=O)[C@]23CC4=CC=C[C@H](O)[C@H]4N2C(=O)[C@@]1(CO)SS3` [Compound 6, gliotoxin], the Km in the data set on TrxR1 [1] (read-out: Km values) was 16.9 µM.

For orientation: IC50 means the concentration at which inhibition is half-maximal. With `O=C(CSSCC(=O)N1CCCC1)N1CCCC1` [Compound 11a, 2,2′-Disulfanediylbis(1-(pyrrolidin-1-yl)ethan-1-one)], the results for the IC50 on TrxR1 [2] and on TrxR1 [3] (setting [8]) were > 200 µM and 170 ± 54.2 µM, respectively.

A word on the CC50: it is the concentration giving 50% cytotoxicity. Low readings indicate greater toxicity to the cells, high ones lower toxicity to the cells. In the case of `CCCNC(=O)CSSCC(=O)NCCC` [Compound 11b], the IC50 was > 200 µM at TrxR1 [2] and 26.5 ± 2.9 µM on TrxR1 [3] (setting [9]). Further, the CC50 in the data set with SHSY5Y cells turned out to be 220 ± 15.3 µM; in the data set on U87 cells, 54.6 ± 3.4 µM; with HaCaT cells it was 58.4 ± 5 µM. The “times more active against U87 cell line compared to the other three compounds” value with U87 cells (U87, versus 11d, 11g, 12a) is reported as 2–3 times.

In the case of `O=C(CSSCC(=O)N1CCOCC1)N1CCOCC1` [Compound 11c], the figures for the IC50 against TrxR1 [2] and on TrxR1 [3] (setting [9]) were 190 ± 78.4 µM and 182 ± 32.2 µM, respectively.

For `O=C(CSSCC(=O)NC1CC1)NC1CC1` [Compound 11d], the values for the IC50 on TrxR1 [2] and on TrxR1 [3] (setting [9]) were 63.6 ± 27.5 µM and 34.7 ± 9.1 µM, respectively. Further, the CC50 in the data set on SHSY5Y cells came out at 202 ± 12 µM; in the data set with U87 cells it was 180 ± 12.6 µM; with HaCaT cells, 69 ± 3.4 µM.

As for `COc1ccc(CNC(=O)CSSCC(=O)NCc2ccc(OC)cc2)cc1` [Compound 11e], the IC50 on TrxR1 [2] and at TrxR1 [3] (setting [9]) was > 200 µM throughout.

For `CN1CCN(C(=O)CSSCC(=O)N2CCN(C)CC2)CC1` [Compound 11f], the IC50 on TrxR1 [2] and at TrxR1 [3] (setting [9]) was > 200 µM in each case.

For `CC(C)(C)NC(=O)CSSCC(=O)NC(C)(C)C` [Compound 11g], on TrxR1 [2], the “inhibitory activity against neuroblastoma (SHSY5Y) cell lysate (in words)” value (from here on “inhibitory activity”) is “virtually no activity”. Moreover, the IC50 at TrxR1 [2] was > 200 µM; at TrxR1 [3] (setting [9]), 22.2 ± 3.1 µM. In addition, the figures for the CC50 in the data set on SHSY5Y cells, with U87 cells and with HaCaT cells were 174 ± 18.3 µM, 125 ± 15.6 µM and 43 ± 2.9 µM, respectively.

Take `O=C(CSSCC(=O)Nc1ccc(F)cc1)Nc1ccc(F)cc1` [Compound 11h]: the IC50 against TrxR1 [2] and on TrxR1 [3] (setting [9]) was > 200 µM throughout.

For the compound `COc1ccc(NC(=O)CSSCC(=O)Nc2ccc(OC)cc2)cc1` [Compound 11i], the IC50 against TrxR1 [2] and at TrxR1 [3] (setting [9]) was > 200 µM throughout.

`NC(=O)CSSCC(N)=O` [Compound 11j]: the “inhibitory activity” value against TrxR1 [2] is on record as “virtually no activity”. Besides, the IC50 against TrxR1 [2] was > 200 µM; on TrxR1 [3] (setting [9]) it was 90.4 ± 18.7 µM.

For the compound `CCCNC(=O)CSSCC(=O)N1CCOCC1` [Compound 12a, 2-((2-Morpholino-2-oxoethyl)disulfanyl)-N-propylacetamide], the results for the IC50 on TrxR1 [2] and at TrxR1 [3] (setting [8]) were 44.4 ± 15.1 µM and 45.6 ± 6.8 µM, respectively. The CC50 at 72 h in data set [4] was found to be 176 ± 13.4 µM; in data set [5], 187 ± 15.9 µM; in data set [6], 71.8 ± 6.9 µM.

For `COC(=O)CSSCC(=O)Nc1ccc(F)cc1` [Compound 13a, Methyl 2-((2-((4-fluorophenyl)amino)-2-oxoethyl)disulfanyl)acetate], the IC50 is 186 ± 83.8 µM on TrxR1 [2] and > 200 µM against TrxR1 [3] (setting [8]).

For the compound `O=C(O)CSSCC(=O)O` [Compound 14, 2,2′-disulfanediyldiacetic acid, reference compound], the “inhibitory activity” value at TrxR1 [2] is “virtually no activity”. Moreover, the IC50 against TrxR1 [2] and against TrxR1 [3] (setting [8]) was > 200 µM each time.

For `O=C([O-])CSSCC(=O)[O-].[Na+].[Na+]` [Compound 15, 2,2′-disulfanediyldiacetic acid disodium salt, reference compound], at TrxR1 [2], the “inhibitory activity” value is on record as “completely devoid of inhibitory activity” and the IC50 was > 200 µM. In addition, on TrxR1 [7], the “activity against liver cell lysate (in words)” value was “completely devoid of inhibitory activity”.

For the compound `COC(=O)CSSCC(=O)OC` [Compound 17, Dimethyl 2,2′-disulfanediyldiacetate], at TrxR1 [2], the “inhibitory activity” value is “virtually no activity” and the IC50 is > 200 µM. Besides, the IC50 against TrxR1 [3] (setting [8]) was > 200 µM.
